These results are taken from PMC11642940, “A New Demand for Improved Selectivity and Potency of Cyanine Dyes as Antiproliferative Agents Against Colorectal Cancer Cells” (Molecules, 2024).

This test deals with NHDF cell line. Description: Phototoxicity assay (MTT after white light irradiation). The test is classed as cell-based. The conditions noted are these: Homo sapiens, light or radiation study, 30 min white light irradiation (30 W RGB LED) after 48 h, 72 h in total. The protocol: While this work focused on monomethine cyanine dyes designed to be used at the outer edge of the “phototherapeutic window” (650–850 nm), photocytotoxicity and photostability studies were carried out for cyanines 5 and 10, as part of an effort to determine whether there would be synergistic action from light exposure on their cytotoxicity. A 30 W RGB LED light source, previously validated by our research group, was applied to the NHDF cell line using the MTT assay. […] These reductions in cytotoxicity align with previous studies on similar compounds and are likely due to some level of photodegradation.
A phototoxicity evaluation was performed on the NHDF cell line with a similar methodology to the MTT assay and following previously validated methods. After 48 h of incubation with increasing concentrations ranging from 0.001 to 100 μM, cells were subjected to 30 min of constant irradiation with the white light of a Luxtar (Yancheng, Jiangsu, China) RGBW LED projector (220–240 V and 30 W). After this irradiation, the cells were incubated at 37 °C for an additional 24 h (72 h in total). This assay was performed in quadruplicate, and two independent assays were realized.

Molecules are shown by their SMILES.

Broadly, the IC50 is the point on the concentration scale where inhibition reaches its midpoint. With `CN1C(=Cc2oc3ccccc3[n+]2C)C=Cc2ccccc21.Cc1ccc(S(=O)(=O)[O-])cc1` [Dye 5, 3-Methyl-2-((1-methylquinolin-2(1H)-ylidene)methyl)benzo[d]oxazol-3-ium 4-methylbenzenesulfonate], the IC50 came to 4.07 µM.
The same measure for `CCN1C(=Cc2sc3cc([N+](=O)[O-])ccc3[n+]2CC)Sc2ccccc21.Cc1ccc(S(=O)(=O)[O-])cc1` [Dye 10, 3-Ethyl-2-((3-ethylbenzo[d]thiazol-2(3H)-ylidene)methyl)-6-nitrobenzo[d]thiazol-3-ium 4-methylbenzenesulfonate]: 34.1 µM.
